Source: patent publication US11434221B2, “Pyrazine-4-carbamate or -urea derivatives as herbicides” (Syngenta Participations AG, priority 2017, dated 2022)

How the values were obtained:
Format in all cases: in vivo
Set-up in all cases: key: 5=total damage to plant; 0=no damage to plant
Lolium perenne (LOLPE) [1] = assay: Post-emergence herbicidal activity, glasshouse pot test; settings: Rate 1000 g/ha; sprayed after 8 days cultivation; evaluated after 13 days
Method: (§1) Seeds of a variety of test species were sown in standard soil in pots: Triticum aestivium (TRZAW), Avena fatua (AVEFA), Alopecurus myosuroides (ALOMY), Echinochloa crus-galli (ECHCG), Lolium perenne (LOLPE), and Setaria faberi (SETFA). After 8 days cultivation (post-emergence) under controlled conditions in a glasshouse (at 24/16° C., day/night; 14 hours light; 65% humidity), the plants were sprayed with an aqueous spray solution derived from the formulation of the technical active ingredient in acetone/water (50:50) solution containing 0.5% Tween 20 (polyoxyethelyene sorbitan monolaurate, CAS RN 9005-64-5). The test plants were then grown in a glasshouse under controlled conditions (at 24/16° C., day/night; 14 hours light; 65% humidity) and watered twice daily. After 13 days, the test was evaluated (5=total damage to plant; 0=no damage to plant).

[2] = tested on: Triticum aestivium (TRZAW); assay: as above; settings: Rate 1000 g/ha; sprayed after 8 days cultivation; evaluated after 13 days
Method: as §1

[3] = tested on: Echinochloa crus-galli (ECHCG); assay: as above; settings: Rate 1000 g/ha; sprayed after 8 days cultivation; evaluated after 13 days
Method: as §1

Avena fatua (AVEFA) [4] = assay: as above; settings: Rate 1000 g/ha; sprayed after 8 days cultivation; evaluated after 13 days
Method: as §1

[5] = tested on: Alopecurus myosuroides (ALOMY); assay: as above; settings: Rate 1000 g/ha; sprayed after 8 days cultivation; evaluated after 13 days
Method: as §1

Setaria faberi (SETFA) [6] = assay: as above; settings: Rate 1000 g/ha; sprayed after 8 days cultivation; evaluated after 13 days
Method: as §1

Lolium perenne (LOLPE) [7] = assay: Pre-emergence herbicidal activity, glasshouse pot test; settings: Rate 1000 g/ha; sprayed one day after sowing; evaluated after 13 days
Method: as §1, with “After” for “After 8 days”, “for one day (pre-emergence)” for “(post-emergence)”

[8] = tested on: Triticum aestivium (TRZAW); assay: as above; settings: Rate 1000 g/ha; sprayed one day after sowing; evaluated after 13 days
Method: as §1, with “After” for “After 8 days”, “for one day (pre-emergence)” for “(post-emergence)”

[9] = tested on: Echinochloa crus-galli (ECHCG); assay: as above; settings: Rate 1000 g/ha; sprayed one day after sowing; evaluated after 13 days
Method: as §1, with “After” for “After 8 days”, “for one day (pre-emergence)” for “(post-emergence)”

Avena fatua (AVEFA) [10] = assay: as above; settings: Rate 1000 g/ha; sprayed one day after sowing; evaluated after 13 days
Method: as §1, with “After” for “After 8 days”, “for one day (pre-emergence)” for “(post-emergence)”

[11] = tested on: Alopecurus myosuroides (ALOMY); assay: as above; settings: Rate 1000 g/ha; sprayed one day after sowing; evaluated after 13 days
Method: as §1, with “After” for “After 8 days”, “for one day (pre-emergence)” for “(post-emergence)”

Setaria faberi (SETFA) [12] = assay: as above; settings: Rate 1000 g/ha; sprayed one day after sowing; evaluated after 13 days
Method: as §1, with “After” for “After 8 days”, “for one day (pre-emergence)” for “(post-emergence)”

SMILES | Control of weed species after post-emergence application, LOLPE (damage score 0-5) (Lolium perenne (LOLPE) [1]) | Control of weed species after post-emergence application, TRAZW (damage score 0-5) [2] | Control of weed species after post-emergence application, ECHCG (damage score 0-5) [3] | Control of weed species after post-emergence application, AVEFA (damage score 0-5) (Avena fatua (AVEFA) [4]) | Control of weed species after post-emergence application, ALOMY (damage score 0-5) [5] | Control of weed species after post-emergence application, SETFA (damage score 0-5) (Setaria faberi (SETFA) [6]) | Control of weed species after pre-emergence application, LOLPE (damage score 0-5) (Lolium perenne (LOLPE) [7]) | Control of weed species after pre-emergence application, TRAZW (damage score 0-5) [8] | Control of weed species after pre-emergence application, ECHCG (damage score 0-5) [9] | Control of weed species after pre-emergence application, AVEFA (damage score 0-5) (Avena fatua (AVEFA) [10]) | Control of weed species after pre-emergence application, ALOMY (damage score 0-5) [11] | Control of weed species after pre-emergence application, SETFA (damage score 0-5) (Setaria faberi (SETFA) [12])
CC(C)(C)OC(=O)N(C(=O)OC(C)(C)C)c1ncc(-c2cncc(F)c2)nc1C#N [Compound H9] | 1 | 0 | 3 | 3 | 0 | 5 | 1 | 0 | 2 | 1 | 0 | 5
CC(C)(C)OC(=O)Nc1ncc(-c2cncc(F)c2)nc1C#N [Compound H10] | 1 | 0 | 2 | 1 | 0 | 5 | 0 | 0 | 2 | 0 | 0 | 4
C=C(C)c1nc(-c2cncc(F)c2)cnc1N(C(=O)OC(C)(C)C)C(=O)OC(C)(C)C [Compound H11] | 2 | 0 | 3 | 2 | 0 | 5 | 2 | 0 | 3 | 0 | 1 | 4
CC(C)(C)OC(=O)N(C(=O)OC(C)(C)C)c1ncc(-c2cncc(F)c2)nc1C1CC1 [Compound H12] | 2 | 0 | 3 | 2 | 0 | 5 | 0 | 0 | 1 | 0 | 0 | 4
CC(C)c1nc(-c2cncc(F)c2)cnc1N(C(=O)OC(C)(C)C)C(=O)OC(C)(C)C [Compound H13] | 1 | 1 | 2 | 1 | 0 | 5 | 0 | 0 | 1 | 0 | 0 | 4
CC(C)=Cc1nc(-c2cncc(F)c2)cnc1N(C(=O)OC(C)(C)C)C(=O)OC(C)(C)C [Compound H14] | 1 | 0 | 2 | 1 | 0 | 4 | 2 | 0 | 2 | 0 | 0 | 3
CC(C)(C)OC(=O)N(C(=O)OC(C)(C)C)c1ncc(-c2cncc(F)c2)nc1C1=CCCCC1 [Compound H15] | 0 | 0 | 0 | 1 | 0 | 2 | 0 | 0 | 0 | 0 | 0 | 0
CC(C)(C)OC(=O)N(C(=O)OC(C)(C)C)c1ncc(-c2cncc(F)c2)nc1Br [Compound H16] | 2 | 0 | 1 | 1 | 0 | 3 | 0 | 0 | 1 | 0 | 0 | 1
